Laboratory results: patent publication US20100298141A1, “SUBSTITUTED PYRIDINE N-OXIDE HERBICIDES” (E. I. DU PONT DE NEMOURS AND COMPANY, priority 2007, published 2010)

Legend:
downy brome = test: Test C pre-/postemergence test; format: in vivo, Bromus tectorum; settings: for Plant response rating, Bromegrass, Downy: 31 g ai/ha, scale 0 to 100 (0 no effect, 100 complete control)
Outline: (§1)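 Seeds were planted and treated preemergence with test chemical in a non-phytotoxic solvent mixture containing surfactant. Postemergence applications of the same formulation went onto plants 2 to 18 cm tall (1- to 4-leaf stage). A dash marks no test result.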

redroot pigweed = test: Test A pre-/postemergence greenhouse test; format: in vivo, Amaranthus retroflexus; settings: for Plant response rating, Pigweed: 0 to 100 scale where 0 is no effect and 100 is complete control; for Pigweed plant response rating: 0 to 100 scale
Outline: (§2)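 Each test compound, dissolved in a non-phytotoxic solvent mixture with surfactant, was sprayed directly onto seeded soil (loam/sand blend) and, at the same moment, onto seedlings carrying one to two leaves. Around ten greenhouse days later, plants were rated visually for injury relative to untreated controls.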

wild oat = test: Test C pre-/postemergence test; format: in vivo, Avena fatua; settings: for Plant response rating, Oat, Wild: 31 g ai/ha, scale 0 to 100 (0 no effect, 100 complete control)
Outline: as §1

johnsongrass = test: Test C pre-/postemergence test; format: in vivo, Sorghum halepense; settings: for Plant response rating, Johnsongrass: 31 g ai/ha, scale 0 to 100 (0 no effect, 100 complete control)
Outline: as §1

duck salad = test: Test C flooded paddy test; format: in vivo, Heteranthera limosa; settings: Flood
Outline: (§3)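 In-water treatment: compound dosed into 3 cm flood over soil, water level unchanged throughout. Controls run alongside; visual assessment at day 13–15.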

green foxtail = test: Test C pre-/postemergence test; format: in vivo, Setaria viridis; settings: for Plant response rating, Foxtail, Green: 31 g ai/ha, scale 0 to 100 (0 no effect, 100 complete control)
Outline: as §1

kochia = test: Test C pre-/postemergence test; format: in vivo, Kochia scoparia; settings: for Plant response rating, Kochia: 31 g ai/ha, scale 0 to 100 (0 no effect, 100 complete control)
Outline: as §1

velvetleaf [1] = test: Test A pre-/postemergence greenhouse test; format: in vivo, Abutilon theophrasti; settings: for Plant response rating, Velvetleaf: 0 to 100 scale where 0 is no effect and 100 is complete control; for Velvetleaf plant response rating: 0 to 100 scale
Outline: as §2

barnyardgrass = test: Test A pre-/postemergence greenhouse test; format: in vivo, Echinochloa crus-galli; settings: for Plant response rating, Barnyardgrass: 0 to 100 scale where 0 is no effect and 100 is complete control; for Barnyardgrass plant response rating: 0 to 100 scale
Outline: as §2

Surinam grass = test: Test C pre-/postemergence test; format: in vivo, Brachiaria decumbens; settings: for Plant response rating, Surinam Grass: 31 g ai/ha, scale 0 to 100 (0 no effect, 100 complete control)
Outline: as §1

velvetleaf [2] = test: Test C pre-/postemergence test; format: in vivo, Abutilon theophrasti; settings: for Plant response rating, Velvetleaf: 31 g ai/ha, scale 0 to 100 (0 no effect, 100 complete control)
Outline: as §1

giant foxtail = test: Test C pre-/postemergence test; format: in vivo, Setaria faberii
Outline: as §1

lambsquarters = test: Test C pre-/postemergence test; format: in vivo, Chenopodium album; settings: for Plant response rating, Lambsquarters: 31 g ai/ha, scale 0 to 100 (0 no effect, 100 complete control)
Outline: as §1

eastern black nightshade = test: Test C pre-/postemergence test; format: in vivo, Solanum ptycanthum; settings: for Plant response rating, Nightshade: 31 g ai/ha, scale 0 to 100 (0 no effect, 100 complete control)
Outline: as §1

crabgrass = test: Test C pre-/postemergence test; format: in vivo, Digitaria sanguinalis; settings: for Plant response rating, Crabgrass, Large: 31 g ai/ha, scale 0 to 100 (0 no effect, 100 complete control)
Outline: as §1

cocklebur = test: Test C pre-/postemergence test; format: in vivo, Xanthium strumarium; settings: for Plant response rating, Cocklebur: 31 g ai/ha, scale 0 to 100 (0 no effect, 100 complete control)
Outline: as §1

common ragweed = test: Test C pre-/postemergence test; format: in vivo, Ambrosia elation
Outline: as §1

rice = test: Test C flooded paddy test; format: in vivo, Oryza sativa; settings: Flood
Outline: as §3

[3] = 62 g ai/ha, Preemergence, scale 0 to 100
[4] = preemergence, 250 g ai/ha, scale 0 (no effect) to 100 (complete control)
[5] = Postemergence, 500 g ai/ha, 0 is no effect, 100 is complete control
[6] = Preemergence, 125 g ai/ha, 0 no effect, 100 complete control
[7] = 125 g ai/ha, preemergence, scale 0 (no effect) to 100 (complete control)
[8] = 62 g ai/ha, scale 0 to 100 (0 no effect, 100 complete control)
[9] = 250 g ai/ha, scale 0 to 100, 0 no effect, 100 complete control, 13 to 15 days
[10] = Preemergence, 500 g ai/ha, 0 no effect, 100 complete control
[11] = Preemergence, 31 g ai/ha, scale 0 to 100 (0 no effect, 100 complete control)

## Cc1cc[n+]([O-])c(S(=O)(=O)Cc2c(C(F)(F)F)nn(C)c2OC(C)C(F)(F)F)c1 (stereo not shown) [Compound 96]
Downy brome; [3]
  Bromegrass, Downy plant response rating: 50
Downy brome; Preemergence
  Plant response rating, Bromegrass, Downy: 50
Downy brome; [4]
  Bromegrass, Downy plant response rating: 55
Redroot pigweed; Postemergence, 125 g ai/ha
  Plant response rating, Pigweed: 30
Redroot pigweed; [5]
  Pigweed plant response rating: 80
Redroot pigweed; [6]
  Pigweed plant response rating: 90
Redroot pigweed; Preemergence, 500 g ai/ha
  Plant response rating, Pigweed: 90
Wild oat; [3]
  Oat, Wild plant response rating: 80
Wild oat; [7]
  Oat, Wild plant response rating: 95
Wild oat; Preemergence
  Plant response rating, Oat, Wild: 70
Wild oat; [4]
  Oat, Wild plant response rating: 98
johnsongrass; [3]
  Johnsongrass plant response rating: 95
johnsongrass; [7]
  Johnsongrass plant response rating: 100
johnsongrass; Preemergence
  Plant response rating, Johnsongrass: 70
johnsongrass; [4]
  Johnsongrass plant response rating: 100
Duck salad; [8]
  Plant response rating, Ducksalad: 0
Duck salad; [9]
  Plant response rating, Ducksalad: 55
Green foxtail; [3]
  Foxtail, Green plant response rating: 95
Green foxtail; [7]
  Foxtail, Green plant response rating: 98
Green foxtail; Preemergence
  Plant response rating, Foxtail, Green: 95
Green foxtail; [4]
  Foxtail, Green plant response rating: 100
kochia; [3]
  Kochia plant response rating: 70
kochia; [7]
  Kochia plant response rating: 100
kochia; Preemergence
  Plant response rating, Kochia: 0
kochia; [4]
  Kochia plant response rating: 100
Velvetleaf [1]; Postemergence, 125 g ai/ha
  Plant response rating, Velvetleaf: 50
Velvetleaf [1]; [5]
  Velvetleaf plant response rating: 60
Velvetleaf [1]; [6]
  Velvetleaf plant response rating: 40
Velvetleaf [1]; [10]
  Velvetleaf plant response rating: 100
barnyardgrass; Postemergence, 125 g ai/ha
  Plant response rating, Barnyardgrass: 60
barnyardgrass; [5]
  Barnyardgrass plant response rating: 90
barnyardgrass; [6]
  Barnyardgrass plant response rating: 90
barnyardgrass; Preemergence, 500 g ai/ha
  Plant response rating, Barnyardgrass: 100
Surinam grass; [3]
  Surinam Grass plant response rating: 80
Surinam grass; [7]
  Surinam Grass plant response rating: 100
Surinam grass; Preemergence
  Plant response rating, Surinam Grass: 75
Surinam grass; [4]
  Surinam Grass plant response rating: 100
Velvetleaf [2]; [3]
  Velvetleaf plant response rating: 30
Velvetleaf [2]; [7]
  Velvetleaf plant response rating: 40
Velvetleaf [2]; Preemergence
  Plant response rating, Velvetleaf: 0
Velvetleaf [2]; [4]
  Velvetleaf plant response rating: 90
Giant foxtail; [3]
  Foxtail, Giant plant response rating: 80
Giant foxtail; [7]
  Foxtail, Giant plant response rating: 95
Giant foxtail; [11]
  Plant response rating, Foxtail, Giant: 80
Giant foxtail; [4]
  Foxtail, Giant plant response rating: 98
lambsquarters; [3]
  Lambsquarters plant response rating: 100
lambsquarters; [7]
  Lambsquarters plant response rating: 100
lambsquarters; Preemergence
  Plant response rating, Lambsquarters: 50
lambsquarters; [4]
  Lambsquarters plant response rating: 100
Eastern black nightshade; [3]
  Nightshade plant response rating: 85
Eastern black nightshade; [7]
  Nightshade plant response rating: 95
Eastern black nightshade; Preemergence
  Plant response rating, Nightshade: 75
Eastern black nightshade; [4]
  Nightshade plant response rating: 100
crabgrass; [3]
  Crabgrass, Large plant response rating: 85
crabgrass; [7]
  Crabgrass, Large plant response rating: 95
crabgrass; Preemergence
  Plant response rating, Crabgrass, Large: 80
crabgrass; [4]
  Crabgrass, Large plant response rating: 98
cocklebur; [3]
  Cocklebur plant response rating: 0
cocklebur; [7]
  Cocklebur plant response rating: 10
cocklebur; Preemergence
  Plant response rating, Cocklebur: 0
cocklebur; [4]
  Cocklebur plant response rating: 40
Common ragweed; [3]
  Ragweed plant response rating: 20
Common ragweed; [7]
  Ragweed plant response rating: 100
Common ragweed; [11]
  Plant response rating, Ragweed: 20
Common ragweed; [4]
  Ragweed plant response rating: 100
rice; [8]
  Plant response rating, Rice: 0
rice; [9]
  Plant response rating, Rice: 20

## Cc1cc[n+]([O-])c(S(=O)(=O)Cc2c(C(F)(F)C(F)(F)F)nn(C)c2OCC(F)(F)F)c1 [Compound 99]
Downy brome; [3]
  Bromegrass, Downy plant response rating: 50
Downy brome; [7]
  Bromegrass, Downy plant response rating: 60
Downy brome; Preemergence
  Plant response rating, Bromegrass, Downy: 30
Downy brome; [4]
  Bromegrass, Downy plant response rating: 70
Redroot pigweed; Postemergence, 125 g ai/ha
  Plant response rating, Pigweed: 10
Redroot pigweed; [5]
  Pigweed plant response rating: 60
Redroot pigweed; [6]
  Pigweed plant response rating: 100
Redroot pigweed; [10]
  Pigweed plant response rating: 100
Wild oat; [3]
  Oat, Wild plant response rating: 80
Wild oat; [7]
  Oat, Wild plant response rating: 95
Wild oat; Preemergence
  Plant response rating, Oat, Wild: 30
Wild oat; [4]
  Oat, Wild plant response rating: 95
johnsongrass; [3]
  Johnsongrass plant response rating: 90
johnsongrass; [7]
  Johnsongrass plant response rating: 100
johnsongrass; Preemergence
  Plant response rating, Johnsongrass: 40
johnsongrass; [4]
  Johnsongrass plant response rating: 100
Duck salad; [8]
  Plant response rating, Ducksalad: 0
Duck salad; [9]
  Plant response rating, Ducksalad: 65
Green foxtail; [3]
  Foxtail, Green plant response rating: 80
Green foxtail; [7]
  Foxtail, Green plant response rating: 100
Green foxtail; Preemergence
  Plant response rating, Foxtail, Green: 80
Green foxtail; [4]
  Foxtail, Green plant response rating: 100
kochia; [3]
  Kochia plant response rating: 100
kochia; [7]
  Kochia plant response rating: 100
kochia; Preemergence
  Plant response rating, Kochia: 100
kochia; [4]
  Kochia plant response rating: 100
Velvetleaf [1]; Postemergence, 125 g ai/ha
  Plant response rating, Velvetleaf: 30
Velvetleaf [1]; [5]
  Velvetleaf plant response rating: 60
Velvetleaf [1]; [6]
  Velvetleaf plant response rating: 20
Velvetleaf [1]; [10]
  Velvetleaf plant response rating: 100
barnyardgrass; Postemergence, 125 g ai/ha
  Plant response rating, Barnyardgrass: 60
barnyardgrass; [5]
  Barnyardgrass plant response rating: 80
barnyardgrass; [6]
  Barnyardgrass plant response rating: 70
barnyardgrass; [10]
  Barnyardgrass plant response rating: 100
Surinam grass; [3]
  Surinam Grass plant response rating: 75
Surinam grass; [7]
  Surinam Grass plant response rating: 95
Surinam grass; Preemergence
  Plant response rating, Surinam Grass: 0
Surinam grass; [4]
  Surinam Grass plant response rating: 95
Velvetleaf [2]; [3]
  Velvetleaf plant response rating: 80
Velvetleaf [2]; [7]
  Velvetleaf plant response rating: 100
Velvetleaf [2]; Preemergence
  Plant response rating, Velvetleaf: 0
Velvetleaf [2]; [4]
  Velvetleaf plant response rating: 100
Giant foxtail; [3]
  Foxtail, Giant plant response rating: 85
Giant foxtail; [7]
  Foxtail, Giant plant response rating: 100
Giant foxtail; [4]
  Foxtail, Giant plant response rating: 100
lambsquarters; [3]
  Lambsquarters plant response rating: 100
lambsquarters; [7]
  Lambsquarters plant response rating: 100
lambsquarters; Preemergence
  Plant response rating, Lambsquarters: 100
lambsquarters; [4]
  Lambsquarters plant response rating: 100
Eastern black nightshade; [3]
  Nightshade plant response rating: 98
Eastern black nightshade; [7]
  Nightshade plant response rating: 100
Eastern black nightshade; Preemergence
  Plant response rating, Nightshade: 90
Eastern black nightshade; [4]
  Nightshade plant response rating: 100
crabgrass; [3]
  Crabgrass, Large plant response rating: 100
crabgrass; [7]
  Crabgrass, Large plant response rating: 100
crabgrass; Preemergence
  Plant response rating, Crabgrass, Large: 80
crabgrass; [4]
  Crabgrass, Large plant response rating: 100
cocklebur; [3]
  Cocklebur plant response rating: 0
cocklebur; [7]
  Cocklebur plant response rating: 0
cocklebur; Preemergence
  Plant response rating, Cocklebur: 0
cocklebur; [4]
  Cocklebur plant response rating: 30
Common ragweed; [3]
  Ragweed plant response rating: 100
Common ragweed; [7]
  Ragweed plant response rating: 100
Common ragweed; [4]
  Ragweed plant response rating: 100
rice; [8]
  Plant response rating, Rice: 0
rice; [9]
  Plant response rating, Rice: 45
